These results are taken from US6869603B2, “Lipoprotein lipase and lipoprotein lipase activators in the treatment of inflammatory conditions” (The Brigham and Women's Hospital, Inc., priority 2001, dated 2005).

“Also recorded” adds a separate entry of the source.

The subject of one experiment is VCAM-1 promoter. The experiment in a line: VCAM-1 promoter-luc transient transfection in bovine endothelial cells (BoEC). The experiment is classed as cell-based. As for the experimental part:
Transient transfection: Transient transfection was carried out in primary (passage 3 to 6) bovine aortic endothelial cells using the Superfect method (Qiagen, Germany) according to manufacturer's directions. Briefly, cells were plated in 24-well plates at 2.3×10^4 cells per well in DMEM containing 10% fetal calf serum. After 16 h of growth, cells were washed with HBSS and transfected with medium containing Superfect/DNA (ratio 5.5/1) for 4 hours or with FuGene (1.5/1) overnight. Reporter construct pUASx4-TK-luc, chimeric human PPAR-alpha-LBD constructs, PPAR-alpha and LDL receptor (LDLr) overexpression vectors, and the VCAM-1 promoter-luc, have been described previously. A PCMX-B-galactosidase expression vector was used as a transfection control. Cells were maintained overnight in medium, followed by treatment with compounds for 10 hrs in DMEM medium containing 1% FCS (for PPAR-alpha-LBD constructs) and 1% Nutridoma SP (for VCAM-1 promoter studies). Cells lysed in buffer (Pharmingen) were assayed for luciferase activity using a reported assay system (Pharmingen) according to the manufacturer's instructions. β-galactosidase activity was monitored at 540 nm using CRPTG (Boeringer Mannheim) as substrate. LDL− augments TNFα-mediated VCAM-1 expression: Surface expression of VCAM-1 was studied in HUVEC activated by TNFα. […]

Experiment [1] concerns acyl-coenzymeA-oxidase (ACO). As to the kind of experiment: ACO mRNA expression (Northern blot) in HepG2 and primary human macrophages. The experiment is classed as cell-based. The method, then: Cell Culture: Circulating human monocytes were isolated from healthy volunteers. Differentiated cells (day 7-10) were treated in M199 medium. Peritoneal Mφ were isolated after 5% thioglycollate broth injection into 2-6 month old PPAR-alpha^+/+ and PPAR-alpha^−/− mice. Mφ were cultured in 10% FCS/DMEM 24 h prior to stimulation. HepG2 cells (ATCC, Manassas, Va.) were cultured in 10% FCS/DMEM.
RNA analysis: Total cell RNA was isolated using RNAEasy kit (Qiagen, Valencia, Calif.), separated using a 1% agarose gel, transferred to a Hydrobone membrane (Amersham, Piscataway, N.J.) and Northern blotting was then performed. cDNA probes for LPL and ACO were obtained from ATCC (Manassas, Va.).
LPL lipolysis of TG-LP activates PPARα-regulated genes: We tested if activation of PPAR-alpha by VLDL/LPL induced expression of an established PPAR-alpha target gene, acyl-coenzymeA-oxidase (ACO). […] In vivo, increased ACO expression has been shown in LPL-overexpressing mice.

In experiment [2] the target is T1, PPAR-alpha-ligand binding domain (LBD) (Homo sapiens, UniProt Q07869).
T1 construct: yeast GAL4 (fusion partner); expressed in transfected cells; host or cells: primary bovine aortic endothelial cells (passage 3-6)
The experiment in a line: PPAR-alpha-LBD/GAL4 chimeric construct activation (luciferase) in transiently transfected primary bovine aortic endothelial cells. The experiment is classed as cell-based. As to conditions: for Effect on VLDL/LPL-mediated PPAR-alpha-LBD activation: agent added to VLDL/LPL treatment; for Effect on LPL/LDL− dependent activation of PPAR-alpha: agent added to LDL−/LPL. The method, then: Transient transfection: Transient transfection was carried out in 24-well plates at 2.3×10^4 primary bovine aortic EC (passage 3-6) per well using Superfect (Qiagen) or Fugene (F. Hoffmann-La Roche). PCMX-β-galactosidase expression vector was used for transfection control. LPL and LPL mutant expression vectors have been previously characterized. Luciferase (Pharmingen, San Diego, Calif.) and P-galactosidase activity were measured according to manufacturer's protocols.
LPL lipolysis of TG-LP generates PPARα ligands: We tested if LPL generates endogenous PPAR-alpha ligands from TG-LP by analyzing activation of chimeric PPAR-alpha-ligand binding domain (LBD) constructs in yeast GAL4 assays. […] Maximal induction was highest for VLDL (21 fold), followed by LDL (14 fold) and HDL (7 fold).
Transient transfection: Transient transfection was carried out in primary (passage 3 to 6) bovine aortic endothelial cells using the Superfect method (Qiagen, Germany) according to manufacturer's directions. Briefly, cells were plated in 24-well plates at 2.3×10^4 cells per well in DMEM containing 10% fetal calf serum. After 16 h of growth, cells were washed with HBSS and transfected with medium containing Superfect/DNA (ratio 5.5/1) for 4 hours or with FuGene (1.5/1) overnight. Reporter construct pUASx4-TK-luc, chimeric human PPAR-alpha-LBD constructs, PPAR-alpha and LDL receptor (LDLr) overexpression vectors, and the VCAM-1 promoter-luc, have been described previously. A PCMX-B-galactosidase expression vector was used as a transfection control. Cells were maintained overnight in medium, followed by treatment with compounds for 10 hrs in DMEM medium containing 1% FCS (for PPAR-alpha-LBD constructs) and 1% Nutridoma SP (for VCAM-1 promoter studies). Cells lysed in buffer (Pharmingen) were assayed for luciferase activity using a reported assay system (Pharmingen) according to the manufacturer's instructions. β-galactosidase activity was monitored at 540 nm using CRPTG (Boeringer Mannheim) as substrate.

In the next experiment the test system is VCAM-1. As to the kind of experiment: Cell surface ELISA of VCAM-1 expression in HUVEC. The experiment is classed as cell-based, human. The settings on record: single stimulus. As for the experimental part: Cell Culture: Human endothelial cells were isolated from umbilical veins and cultured in M199 medium (BioWittaker) containing penicillin/streptomycin, Fungozom, ECGF and 5% fetal calf serum. Cells from passage 3 to 5 were used for experiments. Cells were pretreated with 100 uM fenofibric acid or WY 14643 for 24 h and with LDL species/LPL for 1 h prior to addition of 50 ng/ml TNFα. Subsequent duration of incubations varied. Prior to any procedure cells were washed with ice-cold PBS.
Cell surface ELISA assays were preformed in 96-well plates on confluent monolayers of HUVEC. Treated cells were maintained on ice for 10 minutes, washed with cold PBS and incubated with monoclonal antibodies raised against human VCAM-1. VCAM-1 expression was visualized using alkaline phosphate secondary antibody and measured at […].
LDL− augments TNFα-mediated VCAM-1 expression: Surface expression of VCAM-1 was studied in HUVEC activated by TNFα. Cell stimulation with LDL− lead to approximately a two-fold increase in VCAM-1 expression. In presence of TNFα, VCAM-1 expression was increased 5-fold. […] Here we found a 50% decrease in VCAM-1 expression induced by LDL− and TNFα but pretreated with PPAR-α agonists. […] The VCAM-1 activation was reduced by two-fold in cells ectopically expressing human PPAR-alpha.
A general note: ELISA stands for enzyme-linked immunosorbent assay.

T1 sequence (Q07869 239-466 limits assumed): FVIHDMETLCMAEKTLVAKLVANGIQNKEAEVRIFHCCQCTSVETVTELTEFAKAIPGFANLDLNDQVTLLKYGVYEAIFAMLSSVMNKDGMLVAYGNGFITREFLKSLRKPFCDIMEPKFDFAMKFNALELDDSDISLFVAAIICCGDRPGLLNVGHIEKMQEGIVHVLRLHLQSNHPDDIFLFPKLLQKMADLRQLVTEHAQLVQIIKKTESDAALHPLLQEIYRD
T1 sequence (P04386 1-147 partner limits assumed): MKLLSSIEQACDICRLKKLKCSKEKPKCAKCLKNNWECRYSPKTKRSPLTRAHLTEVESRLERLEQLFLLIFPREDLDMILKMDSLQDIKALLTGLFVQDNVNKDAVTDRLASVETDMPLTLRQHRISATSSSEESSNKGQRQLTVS

Regarding `CC(C)(Oc1ccc(C(=O)c2ccc(Cl)cc2)cc1)C(=O)O` [Fenofibric acid], the “Decrease in LDL−/TNFα dependent VCAM-1 induction” value amounted to 60% in the experiment with VCAM-1 promoter (cells co-transfected with PPAR-alpha vector) and 40% with VCAM-1 promoter (cells co-transfected with control vector).
With `CCCCCCCCCCC[C@@H](C[C@@H]1OC(=O)[C@H]1CCCCCC)OC(=O)[C@H](CC(C)C)NC=O` [tetrahydrolipstatin], the “Effect on VLDL-induced ACO response” value in experiment [1] is “inhibited this VLDL response”. In addition, in experiment [2], the “Effect on VLDL/LPL-mediated PPAR-alpha-LBD activation” value is listed as “inhibited LPL-mediated PPAR-alpha-LBD activation in a dose-dependent fashion”.
In the case of ApoCIII: natural LPL inhibitor, the “Effect on LPL/LDL− dependent activation of PPAR-alpha” value in experiment [2] is recorded as “inhibited; also recorded: abolished”.
Turning to TNFα, in the experiment on VCAM-1, the “Increase in VCAM-1 surface expression” value is on record as 5 fold.
Turning to cyclochalasin, the “Effect on VLDL/LPL-mediated PPAR-alpha-LBD activation” value in experiment [2] is “None of these treatments had any effect”.
In the case of heparin, in experiment [2], the “Effect on VLDL/LPL-mediated PPAR-alpha-LBD activation” value is on record as “None of these treatments had any effect”.
Regarding monoacylglycerols [MAG], the “PPAR-alpha-LBD activation by lipolytic products (significant activators of PPAR-alpha)” value in experiment [2] (lipid added alone) was “activates PPAR-alpha-LBD”.

B1: heat-inactivated LPL: heat-inactivated lipoprotein lipase (protein, UniProt P06858 28-475, looked up)
Lipoprotein lipase: ADQRRDFIDIESKFALRTPEDTAEDTCHLIPGVAESVATCHFNHSSKTFMVIHGWTVTGMYESWVPKLVAALYKREPDSNVIVVDWLSRAQEHYPVSAGYTKLVGQDVARFINWMEEEFNYPLDNVHLLGYSLGAHAAGIAGSLTNKKVNRITGLDPAGPNFEYAEAPSRLSPDDADFVDVLHTFTRGSPGRSIGIQKPVGHVDIYPNGGTFQPGCNIGEAIRVIAERGLGDVDQLVKCSHERSIHLFIDSLLNEENPSKAYRCSSKEAFEKGLCLSCRKNRCNNLGYEINKVRAKRSSKMYLKTRSQMPYKVFHYQVKIHFSGTESETHTNQAFEISLYGTVAESENIPFTLPEVSTNKTYSFLIYTEVDIGELLMLKLKWKSDSYFSWSDWWSSPGFAIQKIRVKAGETQKKVIFCSREKVSHLQKGKAPAVFVKCHDKSLNKKSG
modifications: heat-inactivated
For the molecule B1, the “Effect on LPL/LDL− dependent activation of PPAR-alpha” value in experiment [2] is “abolished”. The “PPAR-alpha-LBD activation after enzyme treatment of lipoproteins” value in experiment [2] (enzyme plus lipoprotein) is listed as “failed to induce PPAR-alpha-LBD activation”.
